From patent US20260130917A1, “ANTIVIRAL COMPOSITION FOR CORONAVIRUS OR INFLUENZA VIRUS, USING NATURAL PRODUCTS, AND USE THEREOF” (priority 2022, published 2026)

System: SARS-CoV-2 variants: Ancestral (lineage A), Alpha (B.1.1.7), Beta (B.1.351), Gamma (P.1), Delta (B.1.617.2), Omicron (B.1.1.529)
Type: cell-based

SMILES: CCCCCOc1cccc(/C=C/C23N=C(O)CCN2c2ccccc2C3(C)C)c1 (stereo not shown) [MolPort-005-980-235, 10,10-dimethyl-10a-[(1E)-2-[3-(pentyloxy)phenyl]ethenyl]-3H,4H,10H,10aH-pyrimido[1,2-a]indol-2-ol]
- antiviral activity against SARS-CoV-2 variants: had antiviral activity against all verified SARS-CoV-2 variants, including Omicron, in a dose-dependent manner
